This note sets out measurements from ChEMBL document CHEMBL1137072, “Peptide deformylase inhibitors with activity against respiratory tract pathogens” (Bioorg Med Chem Lett, 2004).

Converted amounts (≈) assume the structure as drawn. A value given as a limit tells only on which side of the number the result lay.

The subject of assay [1] is Moraxella catarrhalis. Nature of the assay: Minimum inhibitory concentration required for primary screening against in-house strain of Moraxella catarrhalis tested in vitro. Format: functional.
The target in the next assay is T1, Peptide deformylase (Escherichia coli, UniProt Q9JN24).
T1 sequence (Q9JN24 whole entry): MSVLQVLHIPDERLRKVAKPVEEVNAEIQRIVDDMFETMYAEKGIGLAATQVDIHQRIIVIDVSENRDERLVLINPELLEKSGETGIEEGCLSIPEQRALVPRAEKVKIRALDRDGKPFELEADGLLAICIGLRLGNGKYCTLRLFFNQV
The assay can be described thus: Inhibitory activity against Escherichia coli peptide deformylase (PDF) Nickel containing enzyme.

The test system of assay [2] is Streptococcus pneumoniae. Nature of the assay: Minimum inhibitory concentration required for primary screening against in-house strain of Streptococcus pneumoniae tested in vitro. Format: functional.
Assay [3] deals with Haemophilus influenzae. The assay can be described thus: Minimum inhibitory concentration required for primary screening against in-house strain of Haemophilus influenzae tested in vitro; Range- 0.125-2. Type of assay: functional.
The subject of assay [4] is Haemophilus influenzae. Nature of the assay: Minimum inhibitory concentration required for primary screening against in-house strain of Haemophilus influenzae tested in vitro; Range- 0.25-2. Format: functional.
In assay [5] the test system is Streptococcus pneumoniae. Nature of the assay: Minimum inhibitory concentration required for primary screening against in-house strain of Streptococcus pneumoniae tested in vitro; Range- <0.125-0.25. Format: functional.
Assay [6] relates to Streptococcus pneumoniae. Nature of the assay: Minimum inhibitory concentration required for primary screening against in-house strain of Streptococcus pneumoniae tested in vitro; Range- 0.5-1. Format: functional.
Assay [7] concerns Haemophilus influenzae. Nature of the assay: Minimum inhibitory concentration required for primary screening against in-house strain of Haemophilus influenzae tested in vitro; Range- 0.5-2. Type of assay: functional.
For assay [8], the system named is Streptococcus pneumoniae. Nature of the assay: Minimum inhibitory concentration required for primary screening against in-house strain of Streptococcus pneumoniae tested in vitro; Range- 0.25-0.5. Format: functional.
For a further assay, the system named is Staphylococcus capitis. The assay can be described thus: Minimum inhibitory concentration required for primary screening against in-house strain of Staphylococcus capitis tested in vitro. Format: functional.
The subject of assay [9] is Haemophilus influenzae. The assay can be described thus: Minimum inhibitory concentration required for primary screening against in-house strain of Haemophilus influenzae tested in vitro; Range- 0.5-4. Format: functional.
The test system of assay [10] is Moraxella catarrhalis. The assay can be described thus: Minimum inhibitory concentration required for primary screening against in-house strain of Moraxella catarrhalis tested in vitro; Range = 0.125-0.25. Format: functional.
For assay [11], the system named is Haemophilus influenzae. Nature of the assay: Minimum inhibitory concentration required for primary screening against in-house strain of Haemophilus influenzae tested in vitro; Range- 2-4. Type of assay: functional.
Assay [12] relates to Moraxella catarrhalis. The assay can be described thus: Minimum inhibitory concentration required for primary screening against in-house strain of Moraxella catarrhalis tested in vitro; Range- 0.125-0.25. Type of assay: functional.
The subject of assay [13] is Streptococcus pneumoniae. Nature of the assay: Minimum inhibitory concentration required for primary screening against in-house strain of Streptococcus pneumoniae tested in vitro; Range- 0.25-1. Type of assay: functional.
Assay [14] concerns Haemophilus influenzae. The assay can be described thus: Minimum inhibitory concentration required for primary screening against in-house strain of Haemophilus influenzae tested in vitro; Range- 0.125-4. Type of assay: functional.
The subject of assay [15] is Streptococcus pneumoniae. Nature of the assay: Minimum inhibitory concentration required for primary screening against in-house strain of Streptococcus pneumoniae tested in vitro; Range- 0.25-0.5.
The subject of a further assay is Escherichia coli. Nature of the assay: Minimum inhibitory concentration required for primary screening against in-house strain of Escherichia coli tested in vitro. Type of assay: functional.
Assay [16] relates to Haemophilus influenzae. The assay can be described thus: microbe, parasite or virus in culture.
Description: Minimum inhibitory concentration required for primary screening against in-house strain of Haemophilus influenzae tested in vitro; Range- 0.004-1
Assay [17] has as its system Moraxella catarrhalis. Nature of the assay: microbe, parasite or virus in culture.
The test system of assay [18] is Streptococcus pneumoniae. Nature of the assay: microbe, parasite or virus in culture.
Description: Minimum inhibitory concentration required for primary screening against in-house strain of Streptococcus pneumoniae tested in vitro; Range- 0.2-128
Assay [19] relates to Streptococcus pneumoniae. The assay can be described thus: Minimum inhibitory concentration required for primary screening against in-house strain of Streptococcus pneumoniae tested in vitro; Range-0.008-2. Format: functional.

Regarding `CC(C)(C)[C@H](NC(=O)[C@H](CC1CCCC1)CN(O)C=O)C(=O)c1ccc(N2CCC(O)CC2)c(F)c1`, the MIC is less than 0.125 µg/mL in the assay on Moraxella catarrhalis [1], 0.25 µg/mL (≈ 0.494 µM) with Streptococcus pneumoniae [2] and less than 2 µg/mL with Haemophilus influenzae [3]. Further, half-maximal inhibition against Peptide deformylase (IC50) required 2 nM.

Consider `CCCC[C@H](CN(O)C=O)C(=O)N[C@H](C(=O)c1ccc(N2CCOCC2)cc1)C(C)(C)C`, for which the 50% inhibitory concentration (IC50) against Peptide deformylase was found to be 5 nM.

Consider `CC(C)(C)[C@H](NC(=O)[C@H](CC1CCCC1)CN(O)C=O)C(=O)c1ccc(N2CCC[C@H]2CO)cc1`, for which the MIC in the assay on Haemophilus influenzae [4] was less than 2 µg/mL; in the assay on Moraxella catarrhalis [1], less than 0.125 µg/mL; with Streptococcus pneumoniae [5], less than 0.25 µg/mL. On Peptide deformylase, this molecule came in with an IC50 of 7 nM.

On to `CC(C)(C)[C@H](NC(=O)[C@H](CC1CCCC1)CN(O)C=O)C(=O)c1cc(F)c(F)cc1N1CCN(CCO)CC1`, for which the MIC in the assay with Haemophilus influenzae [4] was less than 2 µg/mL; in the assay with Moraxella catarrhalis [1], less than 0.125 µg/mL; against Streptococcus pneumoniae [6], less than 1 µg/mL. This molecule also registered an IC50 at Peptide deformylase of 2 nM.

As for `CC(C)(C)[C@H](NC(=O)[C@H](CC1CCCC1)CN(O)C=O)C(=O)c1ccc(N2CCN(CCN3CCOCC3)CC2)cc1`, the MIC against Haemophilus influenzae [7] was less than 2 µg/mL; against Moraxella catarrhalis [1], less than 0.125 µg/mL; against Streptococcus pneumoniae [8], less than 0.5 µg/mL. In addition, inhibition on Peptide deformylase was half-maximal at 2 nM (IC50).

As to `CCCC[C@H](CN(O)C=O)C(=O)N[C@H](C(=O)c1ccc(N)cc1)C(C)(C)C`, half-maximal inhibition against Peptide deformylase (IC50) was put at 8 nM. Further, the MIC against Staphylococcus capitis worked out at 12 µM (≈ 4.53 µg/mL).

Consider `CC(C)(C)[C@H](NC(=O)[C@H](CC1CCCC1)CN(O)C=O)C(=O)c1cc(F)c(F)cc1N1CCC[C@H]1CO`, for which the MIC against Haemophilus influenzae [7] is less than 2 µg/mL; in the assay on Moraxella catarrhalis [1], less than 0.125 µg/mL; with Streptococcus pneumoniae [2] it was 0.25 µg/mL (≈ 0.477 µM).

`CCCC[C@H](CN(O)C=O)C(=O)N[C@H](C(=O)c1ccco1)C(C)(C)C` had an IC50 against Peptide deformylase of 5 nM.

As for `CCCC[C@H](CN(O)C=O)C(=O)N[C@H](C(=O)c1ccc(O)cc1)C(C)(C)C`, the midpoint of inhibition at Peptide deformylase, the IC50, lay at 8 nM. This IC50 is about 1.6-fold higher than that of the molecule before.

As to `CC(C)(C)[C@H](NC(=O)[C@H](CC1CCCC1)CN(O)C=O)C(=O)c1cc(F)c(F)cc1N1CCN(CCN2CCCC2)CC1`, the MIC in the assay with Haemophilus influenzae [9] was less than 4 µg/mL; against Moraxella catarrhalis [10], less than 0.25 µg/mL; against Streptococcus pneumoniae [8], less than 0.5 µg/mL. At Peptide deformylase, this molecule showed an IC50 of 2 nM.

For `CC(C)(C)[C@H](NC(=O)[C@H](CC1CCCC1)CN(O)C=O)C(=O)c1cc(F)c(F)cc1N1CCN(CCN2CCOCC2)CC1`, the figures for the MIC with Haemophilus influenzae [11], against Moraxella catarrhalis [12] and in the assay on Streptococcus pneumoniae [13] were less than 4 µg/mL, less than 0.25 µg/mL and less than 1 µg/mL, respectively. For the same molecule, the IC50 at Peptide deformylase was 2 nM.

In the case of `CC(C)(C)[C@H](NC(=O)[C@H](CC1CCCC1)CN(O)C=O)C(=O)c1ccc(N2CCC[C@H]2CO)c(F)c1`, the results for the MIC with Moraxella catarrhalis [1], against Streptococcus pneumoniae [2] and with Haemophilus influenzae [3] were less than 0.125 µg/mL, 0.25 µg/mL (≈ 0.494 µM) and less than 2 µg/mL, respectively. On Peptide deformylase, this molecule registered an IC50 of 2 nM.

In the case of `CC(C)(C)[C@H](NC(=O)[C@H](CC1CCCC1)CN(O)C=O)C(=O)c1ccc(N2CCN(CCN3CCOCC3)CC2)c(F)c1`, the MIC in the assay with Haemophilus influenzae [14] is less than 4 µg/mL; against Moraxella catarrhalis [1], 0.125 µg/mL (≈ 0.207 µM); in the assay with Streptococcus pneumoniae [8] it was less than 0.5 µg/mL. This molecule also yielded an IC50 against Peptide deformylase of 6 nM.

`CC(C)(C)[C@H](NC(=O)[C@H](CC1CCCC1)CN(O)C=O)C(=O)c1ccc(N2CCN(CCN3CCCC3)CC2)cc1`: the MIC in the assay on Haemophilus influenzae [7] was less than 2 µg/mL; with Moraxella catarrhalis [12], less than 0.25 µg/mL; against Streptococcus pneumoniae [15] it was less than 0.5 µg/mL. At Peptide deformylase, 3 nM corresponded to half-maximal inhibition (IC50).

Consider `CCCC[C@H](CN(O)C=O)C(=O)N[C@H](C(=O)c1ccc(C#N)cc1)C(C)(C)C`, for which the results for the MIC in the assay on Escherichia coli and against Staphylococcus capitis were 6.25 µM (≈ 2.42 µg/mL) and 3.1 µM (≈ 1.2 µg/mL), respectively. This molecule displayed an IC50 against Peptide deformylase of 7 nM.

In turn, `CCCC[C@H](CN(O)C=O)C(=O)N[C@H](C(=O)c1ccc(NC(=O)C(F)(F)F)cc1)C(C)(C)C` registered an IC50 on Peptide deformylase of 20 nM.

For `CCCC[C@H](CN(O)C=O)C(=O)N[C@H](C(C)=O)C(C)(C)C`, the MIC with Escherichia coli was determined as 25 µM (≈ 7.51 µg/mL); in the assay on Staphylococcus capitis it was 100 µM (≈ 30 µg/mL).

As to `O=C(O)c1cn(C2CC2)c2cc(N3CCNCC3)c(F)cc2c1=O` [CIPROFLOXACIN], the MIC90 against Haemophilus influenzae [16] came to 0.015 µg/mL (≈ 0.0453 µM); in the assay on Moraxella catarrhalis [17], 0.06 µg/mL (≈ 0.181 µM); in the assay on Streptococcus pneumoniae [18] it was 8 µg/mL (≈ 24.1 µM).

`CC1(C)S[C@@H]2[C@H](NC(=O)Cc3ccccc3)C(=O)N2[C@H]1C(=O)[O-].[Na+]` [PENICILLIN G SODIUM] yielded an MIC90 with Streptococcus pneumoniae [19] of 1 µg/mL.

As usually defined, the IC50 is the point on the concentration scale where inhibition reaches its midpoint.
